Article PMC11638703 (RSC Advances, 2024)
Where two headings read alike, the source gives them in different places.

Key:
[1] = test system: MCF-7 cells; test: Cytotoxicity, MTT assay, MCF-7 cells; assay type: cell-based, human; settings: from MCF-7 IC50
[2] = biological target: T1, PIM-1 kinase (Homo sapiens, UniProt P11309); test: PIM-1 kinase inhibitory assay; assay type: biochemical
[3] = test system: HepG2 cells; test: Cytotoxicity, MTT assay, HepG2 cells; assay type: cell-based; settings: for LLE (lipophilic efficiency): from HepG2 IC50
[4] = biological target: T1, PIM-1 kinase; settings: previously synthesized compound; ref [40]; cited from earlier work
[5] = test system: caspase 8; test: Caspase 8 level by ELISA in treated HepG2 cells; assay type: cell-based, human; settings: HepG2 treated at IC50 dose, 48 h, control 55.01
[6] = test system: caspase 3; test: Caspase 3 level by ELISA in treated HepG2 cells; assay type: cell-based, human; settings: HepG2 treated at IC50 dose, 48 h, control 4.01
[7] = test system: THLE2 cells; test: Cytotoxicity, MTT assay, normal THLE2 cells; assay type: cell-based
[8] = test system: caspase 9; test: Caspase 9 level by ELISA in treated HepG2 cells; assay type: cell-based, human; settings: HepG2 treated at IC50 dose
[9] = test system: HepG2 cells; test: Annexin V/PI staining flow cytometry; assay type: cell-based; settings: HepG2, IC50 dose, 48 h

T1 sequence (P11309 whole entry): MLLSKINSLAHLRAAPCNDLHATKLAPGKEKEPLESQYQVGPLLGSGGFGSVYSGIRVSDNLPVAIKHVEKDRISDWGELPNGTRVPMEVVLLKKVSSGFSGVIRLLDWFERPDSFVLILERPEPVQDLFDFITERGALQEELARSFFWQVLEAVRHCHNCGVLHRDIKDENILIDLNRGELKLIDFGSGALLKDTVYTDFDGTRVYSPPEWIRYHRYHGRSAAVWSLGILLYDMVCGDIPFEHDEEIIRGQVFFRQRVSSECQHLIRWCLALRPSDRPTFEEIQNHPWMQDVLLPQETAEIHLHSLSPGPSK

Row | Structure (SMILES) | LLE (lipophilic efficiency) [1] | % of PIM-1 inhibition [2] | IC50 [2] | LLE (lipophilic efficiency) [3] | further results
1 | CCOC(=O)Cn1c(-c2ccc(Cl)cc2)cc(-c2ccc(O)c(OC)c2)c(C#N)c1=O [Compound 5, Ethyl 2-(6-(4-chlorophenyl)-3-cyano-4-(4-hydroxy-3-methoxyphenyl)-2-oxopyridin-1(2H)-yl)acetate] | 2.65 | 83.4 ± 2.3% | 64.6 ± 0.2 nM | 2.93 | –
2 | N#Cc1cnc2ncncc2c1 [Pyrido[2,3-d] pyrimidine-6-carbonitrile] | – | – | – | – | % of PIM-1 inhibition [4]: 97.8 ± 1.8%
3 | COc1cc(-c2cc(-c3ccc(Cl)cc3)n(CC(=O)n3nc(C)cc3C)c(=O)c2C#N)ccc1O [Compound 10, 6-(4-Chlorophenyl)-1-(2-(3,5-dimethyl-1H-pyrazol-1-yl)-2-oxoethyl)-4-(4-hydroxy-3-methoxyphenyl)-2-oxo-1,2-dihydropyridine-3-carbonitrile] | – | 87.6 ± 3.2% | 34.6 ± 0.12 nM | – | –
4 | COc1cc(-c2cc(-c3ccc(Cl)cc3)n(CN(C)C)c(=O)c2C#N)ccc1O [Compound 8, 6-(4-Chlorophenyl)-1-((dimethylamino)methyl)-4-(4-hydroxy-3-methoxyphenyl)-2-oxo-1,2-dihydropyridine-3-carbonitrile] | 2.97 | – | – | 2.76 | –
5 | COc1cc(-c2cc(-c3ccc(Cl)cc3)n(CC(=O)NN)c(=O)c2C#N)ccc1O [Compound 9, 2-(6-(4-Chlorophenyl)-3-cyano-4-(4-hydroxy-3-methoxyphenyl)-2-oxopyridin-1(2H)-yl)acetohydrazide] | 5.41 | 98.8 ± 1.9% | 8.4 ± 0.2 nM | 5.60 | Concentration Caspase 8 [5]: 74.4 ng/mL; Concentration Caspase 3 [6]: 9.8 ng/mL; maximum cell growth inhibition [7]: 13%; selectivity for caspase-9 compared to caspase-3 and caspase-8 [8]: ~2.6 fold; Concentration Caspase 9 ([8]; 48 h, ELISA, control 43.33): 112.6 ng/mL; early apoptosis [9]: 15.2%; late apoptosis [9]: 37.5%; necrosis cell death [9]: failed to enhance necrosis cell death; total apoptotic cell death vs untreated control [9]: 175 times; total apoptosis ([9]; untreated 0.30%): 52.7%; percentage of cell growth (inhibition) ([3]; HepG2, maximal concentration): 94%
